Experimental findings from publication PMC5607274, “An iterative compound screening contest method for identifying target protein inhibitors using the tyrosine-protein kinase Yes” (Scientific Reports, 2017) are described below.

T1 sequence (P07947 2-543): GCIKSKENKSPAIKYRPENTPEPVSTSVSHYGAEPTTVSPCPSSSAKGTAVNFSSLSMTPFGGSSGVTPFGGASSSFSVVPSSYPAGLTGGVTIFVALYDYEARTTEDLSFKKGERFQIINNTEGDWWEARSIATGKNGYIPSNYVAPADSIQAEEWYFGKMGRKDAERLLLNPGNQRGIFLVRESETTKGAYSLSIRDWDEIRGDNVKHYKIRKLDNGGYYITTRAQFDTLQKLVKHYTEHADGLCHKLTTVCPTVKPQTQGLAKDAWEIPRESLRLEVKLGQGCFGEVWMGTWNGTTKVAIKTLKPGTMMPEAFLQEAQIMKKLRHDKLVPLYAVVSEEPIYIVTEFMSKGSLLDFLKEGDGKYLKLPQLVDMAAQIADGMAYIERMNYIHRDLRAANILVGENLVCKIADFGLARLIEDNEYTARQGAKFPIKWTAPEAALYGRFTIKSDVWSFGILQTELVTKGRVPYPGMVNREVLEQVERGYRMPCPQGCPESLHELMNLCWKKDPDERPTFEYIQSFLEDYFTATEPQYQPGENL

The first experiment concerns the target T1, human recombinant Yes [a.a. 2–543 (end)] (Homo sapiens, UniProt P07947).
T1 construct: human recombinant Yes [a.a; 2–543 (end)]; purchased BPS Bioscience 40488
Put plainly: ADP-Glo kinase assay, inhibition rates of Yes phosphorylation activity (first and second screening). It is filed as biochemical. The settings on record: first screening; mean of n = 4 wells; 10 μmol L−1 compound. In a few lines: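 ADP-Glo luminescence measured inhibition of human recombinant Yes (a.a. 2–543) phosphorylation activity. In the first screen, each compound ran in 4 wells and inhibition rates were averaged. The second screen retested hits as compounds dissolved from fresh powder.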
In general terms: ADP-Glo first removes unused ATP, then detects ADP through luciferase.
`CC(C)(C)c1ncc(C(=O)Nc2ccc(F)c(NC(=O)C3CC3)c2)s1` [Compound Z825945954]: the “First screening IR (inhibition rate)” value was -24%. As for `Clc1ccc2nc(NC3=NCN(CCN4CCOCC4)CN3)nc(-c3ccccc3)c2c1` [Compound Z57440306], the “First screening IR (inhibition rate)” value stood at 4%. Regarding `O=C(NCCSc1ccc(Br)cc1)c1ccc2nc[nH]c2c1` [Compound Z30463043], the “First screening IR (inhibition rate)” value amounted to 7%. Consider `Cc1oc(C)c(S(N)(=O)=O)c1C(=O)N1CCN(Cc2c(F)cccc2Cl)CC1` [Compound Z466082788], for which the “First screening IR (inhibition rate)” value is listed as -3%. For `Cc1ccc(-c2noc(/C=C/c3cncc(O)c3)n2)cc1F` [Compound Z1642148240], the “First screening IR (inhibition rate)” value was -4%. `Cc1c(C(=O)NCCOc2ccccc2)[nH]c2c1C(=O)CCC2` [Compound Z51800409]: the “First screening IR (inhibition rate)” value is listed as 4%.

Consider `O=C(O)c1cccc(/C=C/c2ccnnc2)c1` [Compound Z1728621359], for which the “First screening IR (inhibition rate)” value was -9%. Turning to `CCn1ncc2c(C(=O)OC)cc(-c3ccccc3)nc21` [Compound Z90171664], the “First screening IR (inhibition rate)” value came to 11%. On the same count and under the same terms, for `N#Cc1ccccc1CSCCNC(=O)c1ccc2nc[nH]c2c1` [Compound Z88237436] the value was -1%; for `Fc1ccccc1-n1c(SCc2cccnc2)nnc1-c1ccccc1Cl` [Compound Z316264326], 1%; for `COCC(=O)N1CCCCCC1C1CCN(c2ncc(C(N)=O)cc2Cl)CC1` (stereo not shown) [Compound Z1170427223], 2%. Consider `Cl.Oc1ccc(-c2cc(-c3ccccc3)c3ccccc3n2)cc1` [Compound Z48951045], for which the “First screening IR (inhibition rate)” value amounted to 24%. `Cc1ccc(-c2nn3c(=O)c4c5c(sc4nc3c3ccccc23)CC(C(C)(C)C)CC5)cc1` (stereo not shown) [Compound Z56929220]: the “First screening IR (inhibition rate)” value is -24%.

As for `Cc1c(Nc2ccc(/C=C3/C(=O)Nc4ccc(Cl)cc43)cc2)c(=O)n(-c2ccccc2)n1C` [Compound Z46051719], the “First screening IR (inhibition rate)” value is reported as 15%. Turning to `CCN(C1CCS(=O)(=O)C1)S(=O)(=O)c1c(C)noc1C` (stereo not shown) [Compound Z45467189], the “First screening IR (inhibition rate)” value is reported as -5%. With `O=C(O)c1ccc(/C=C2/CCCc3c2nc2ccccc2c3C(=O)O)cc1` [Compound Z46035770], the “First screening IR (inhibition rate)” value stood at 1%. On to `Cc1cc(NC(=O)Cn2nc(C)c(S(=O)(=O)N3CCCCC3)c2C)no1` [Compound Z92593810], for which the “First screening IR (inhibition rate)” value is listed as -4%. Still for that read-out and setting: with `O=C1Cc2cc(S(=O)(=O)N3CCCc4cccc(OC(F)F)c43)ccc2N1` [Compound Z815677014] the figure was -4%; with `NC(=O)Nc1ccc(C(=O)NCCC(c2ccccc2)c2ccccc2)cc1` [Compound Z26815125], -8%. Consider `Cc1ccc(S(=O)(=O)N(C)C2CCS(=O)(=O)C2)cc1C` (stereo not shown) [Compound Z89320796], for which the “First screening IR (inhibition rate)” value is listed as 2%. With `Cc1nc2ccc(NC(=O)c3cc4ccccc4oc3=O)cc2s1` [Compound Z28296849], the “First screening IR (inhibition rate)” value turned out to be 13%. On the same count and under the same terms, with `CC(C)Oc1cc(CN(c2ncnc3c2cnn3C)C2CC2)ccn1` [Compound Z1739489055] the figure was 3%; with `O=c1[nH]cnc2c1c(-c1ccccc1)cn2-c1ccc(F)cc1` [Compound Z314617634], 7%. The same measure, in the same setting: for `COc1cc(/C=C(\C#N)C(=O)NC2CCCCC2)ccc1OCC(=O)Nc1ccc(Br)cc1` [Compound Z44319326] the value was -16%. As for `CCN(CC)CCNC(=O)c1ccc(NC(=O)C2CCN(c3ncnc4sc(C)c(C)c34)CC2)cc1` [Compound Z79604730], the “First screening IR (inhibition rate)” value is -1%. Consider `Cl.Nc1ccc(-c2cc(-c3ccccc3)c3cc(Cl)ccc3n2)cc1` [Compound Z56913268], for which the “First screening IR (inhibition rate)” value is given as -5%. For `O=C(C1=C(O)C(=O)N(CCCn2ccnc2)C1c1cccc([N+](=O)[O-])c1)c1ccco1` (stereo not shown) [Compound Z57237939], the “First screening IR (inhibition rate)” value turned out to be 62%. On to `CN(C)S(=O)(=O)c1ccc(S(C)(=O)=O)cc1` [Compound Z300114426], for which the “First screening IR (inhibition rate)” value is given as -8%. As to `CC(C)(C)c1nc(SCC(=O)c2ccc3c(c2)CCC3)n[nH]1` [Compound Z335958518], the “First screening IR (inhibition rate)” value is -7%. For `CNc1snc(C)c1C(=O)N1CCC(Oc2ccc(Cl)c(Cl)c2)C1` (stereo not shown) [Compound Z1417711005], the “First screening IR (inhibition rate)” value is -7%. Take `Cc1ccc(NC(=O)C(=O)c2c(-c3ccccc3)cc3ccccn23)cc1S(=O)(=O)N1CCOCC1` [Compound Z56835405]: the “First screening IR (inhibition rate)” value was -2%. With `Cc1ccc(S(=O)(=O)N2CCN(S(=O)(=O)c3ccc(C)c(C)c3)CC2)cc1C` [Compound Z45415135], the “First screening IR (inhibition rate)” value is listed as -5%. Regarding `COc1ccc(C(CNC(=O)c2ccc3c(c2)NC(=O)C(C)S3)N(C)C)cc1` (stereo not shown) [Compound Z26596638], the “First screening IR (inhibition rate)” value was 27%. `Cc1nn(-c2ccccc2)c2sc(C(=O)NCc3ccccn3)cc12` [Compound Z30166588]: the “First screening IR (inhibition rate)” value came to 1%. Take `CN(CC1CC1)c1ccc(S(C)(=O)=O)cc1S(C)(=O)=O` [Compound Z666145136]: the “First screening IR (inhibition rate)” value stood at 52%. Same read-out and setting: with `CN(Cc1ccc(F)cc1F)C(=O)c1cc(-c2ccccc2)nc2c1cnn2Cc1ccncc1` [Compound Z283846026] the figure was 11%; with `N#Cc1ccccc1CSCCNc1cc(=O)n2ccccc2n1` [Compound Z203909940], -8%; with `CC1CCc2c(sc3nc(-c4cccnc4)nc(N4CCCCCCC4)c23)C1` (stereo not shown) [Compound Z31262492], 4%. Still for that read-out and setting: with `CC(C)c1cccc(N(C)C(=O)c2cccnc2S(=O)(=O)C(F)(F)F)c1` [Compound Z959760312] the figure was 32%; with `COC(=O)c1cc(-c2ccccc2F)nc2c1cnn2C(C)C` [Compound Z91043804], -6%. Consider `Cc1c(C(=O)NCCSc2ccc(Br)cc2)[nH]c2c1C(=O)CCC2` [Compound Z51996046], for which the “First screening IR (inhibition rate)” value is reported as 8%.

Take `CC(Sc1nc2ncccn2n1)C(=O)Nc1ccc(Cl)cc1Cl` (stereo not shown) [Compound Z207321514]: the “First screening IR (inhibition rate)” value stood at 5%. Consider `Cc1cc(/C=C/C(=O)N2CCN(C3CCS(=O)(=O)C3)CC2)c(C)n1-c1ccc2c(c1)OCO2` (stereo not shown) [Compound Z89622401], for which the “First screening IR (inhibition rate)” value is given as -12%. Take `Cc1nc(-c2ccncc2)[nH]c(=O)c1CCC(=O)NCc1ccncc1` [Compound Z873001918]: the “First screening IR (inhibition rate)” value was determined as 12%. On to `CN1/C(=C\C(=O)CN2C(=O)NC3(CCCc4sccc43)C2=O)C(C)(C)c2ccccc21` (stereo not shown) [Compound Z54813762], for which the “First screening IR (inhibition rate)” value is on record as -20%. For `O=C1CCc2cc(OC(=O)c3cn(-c4ccccc4)nc3-c3cccs3)ccc2N1` [Compound Z764721614], the “First screening IR (inhibition rate)” value is recorded as 63%. Regarding `Cc1ccc(-n2c(C)nnc2SCC(=O)Nc2c(C#N)c(C)c(C)n2Cc2ccccc2)cc1` [Compound Z152755906], the “First screening IR (inhibition rate)” value stood at 5%.

Still in this experiment, the particulars now being: second screening, dissolved from fresh powder; n = 4; 10 μmol L−1 compound.
Take `O=C(C1=C(O)C(=O)N(CCCn2ccnc2)C1c1cccc([N+](=O)[O-])c1)c1ccco1` (stereo not shown) [Compound Z57237939]: the “Second screening IR (inhibition rate)” value is given as -11%. Regarding `O=C1CCc2cc(OC(=O)c3cn(-c4ccccc4)nc3-c3cccs3)ccc2N1` [Compound Z764721614], the “Second screening IR (inhibition rate)” value is recorded as -5%.
